ChEMBL document CHEMBL5042530, “Discovery of Novel Pyridine-Dimethyl-Phenyl-DAPY Hybrids by Molecular Fusing of Methyl-Pyrimidine-DAPYs and Difluoro-Pyridinyl-DAPYs: Improving the Druggability toward High Inhibitory Activity, Solubility, Safety, and PK” (J Med Chem, 2022)

Key:
[1] = Aqueous solubility of the compound in PBS buffer at pH 2 measured after 24 hrs by HPLC-UV analysis; assay type: physicochemical
[2] = Aqueous solubility of the compound in PBS buffer at pH 7 measured after 24 hrs by HPLC-UV analysis; assay type: physicochemical
[3] = Aqueous solubility of the compound in PBS buffer at pH 7.4 measured after 24 hrs by HPLC-UV analysis; assay type: physicochemical
[4] = test system: Human immunodeficiency virus 1; assay: Antiviral activity against wild type HIV-1 IIIB infected in human MT4 cells assessed as protection against virus-induced cytotoxicity incubated for 5 days by MTT assay; assay type: functional, organism-based; conditions: Human immunodeficiency virus 1, IIIB, MT4, 120 h
[5] = Cytotoxicity against human MT4 cells assessed as reduction in cell viability measured after 5 days by MTT assay; assay type: toxicity, cell-based; conditions: time 5 day
[6] = Selectivity index, ratio of CC50 for cytotoxicity against human MT4 cells to EC50 for antiviral activity against HIV-1 IIIB infected in human MT4 cells; assay type: toxicity, cell-based; conditions: read-out: Ratio CC50/EC50
[7] = test system: Human immunodeficiency virus 1; assay: Antiviral activity against HIV-1 harboring RT L100I mutant infected in human MT4 cells assessed as protection against virus-induced cytotoxicity incubated for 5 days by MTT assay; assay type: functional, organism-based; conditions: Human immunodeficiency virus 1, MT4, 120 h
[8] = test system: Human immunodeficiency virus 1; assay: Antiviral activity against HIV-1 harboring K103N mutant infected in human MT4 cells assessed as protection against virus-induced cytotoxicity incubated for 5 days by MTT assay; assay type: functional, organism-based; conditions: Human immunodeficiency virus 1, MT4, 120 h
[9] = test system: Human immunodeficiency virus 1; assay: Antiviral activity against HIV-1 harboring Y181C mutant infected in human MT4 cells assessed as protection against virus-induced cytotoxicity incubated for 5 days by MTT assay; assay type: functional, organism-based; conditions: Human immunodeficiency virus 1, MT4, 120 h
[10] = test system: Human immunodeficiency virus 1; assay: Antiviral activity against HIV-1 harboring Y188L mutant infected in human MT4 cells assessed as protection against virus-induced cytotoxicity incubated for 5 days by MTT assay; assay type: functional, organism-based; conditions: Human immunodeficiency virus 1, MT4, 120 h
[11] = test system: Human immunodeficiency virus 1; assay: Antiviral activity against HIV-1 harboring E138K mutant infected in human MT4 cells assessed as protection against virus-induced cytotoxicity incubated for 5 days by MTT assay; assay type: functional, organism-based; conditions: Human immunodeficiency virus 1, MT4, 120 h
[12] = test system: Human immunodeficiency virus 1; assay: Antiviral activity against HIV-1 harboring F227L/V106A double mutant infected in human MT4 cells assessed as protection against virus-induced cytotoxicity incubated for 5 days by MTT assay; assay type: functional, organism-based; conditions: Human immunodeficiency virus 1, MT4, 120 h
[13] = test system: Human immunodeficiency virus 1; assay: Antiviral activity against HIV-1 harboring RES056 mutant infected in human MT4 cells assessed as protection against virus-induced cytotoxicity incubated for 5 days by MTT assay; assay type: functional, organism-based; conditions: Human immunodeficiency virus 1, MT4, 120 h
[14] = biological target: Human immunodeficiency virus type 1 reverse transcriptase (Human immunodeficiency virus 1, UniProt Q72547); assay: Inhibition of recombinant wild type p66/p51 HIV1 reverse transcriptase incubated for 40 mins by picogreen dye-based spectrofluorometric analysis

Row | SMILES | solubility at 24 h [1] [µg/mL] | solubility at 24 h [2] [µg/mL] | solubility at 24 h [3] [µg/mL] | EC50 [4] [nM] | CC50 at 120 h [5] [nM] | selectivity ratio [6] | EC50 [7] [nM] | EC50 [8] [nM] | EC50 [9] [nM] | EC50 [10] [nM] | EC50 [11] [nM] | EC50 [12] [nM] | EC50 [13] [nM] | IC50 [14] [nM]
1 | Cc1cc(-c2ccncc2)cc(C)c1Nc1ccnc(Nc2ccc(C#N)cc2)n1.O=S(=O)(O)O | 1.9 | < 1 | < 1 | – | – | – | – | – | – | – | – | – | – | –
2 | COc1ncc(-c2cc(C)c(Nc3ccnc(Nc4ccc(C#N)cc4)n3)c(C)c2)cn1 | – | – | – | 1.6 | 4800 | 3010 | 38 | 6.2 | 17 | 892 | 19.7 | 747 | 204 | 37.8
3 | CS(=O)(=O)O.Cc1cc(-c2ccncc2)cc(C)c1Nc1ccnc(Nc2ccc(C#N)cc2)n1 | 478 | < 1 | < 1 | – | – | – | – | – | – | – | – | – | – | –
